Test [1] addresses 5-hydroxytryptamine receptor 5A (Homo sapiens, UniProt P47898). The experiment in a line: Counterscreen for agonists of OPRM1-OPRD1 heterodimerization: luminescence-based cell-based high throughput dose response assay to identify agonists of 5-hydroxytryptamine (serotonin) 5A receptor (HTR5A). [Related pubchem assays (depositor defined):AID504326, AID504355, AID504692, AID504904, AID504905]. In kind it is functional. In general terms: Counterscreens check selectivity or assay interference.

The nature of test [2]: MDA-MB-231 cell growth inhibition, dose response, cytotoxicity control for RAD54 inhibitor project, CellTiter-Glo luminescence, cherry-pick (AID 651692). The test is classed as functional, cell-based. (In general: Cellular ATP, detected with luciferase, serves as a proxy for viable cell number.)
The target of test [3] is T1, Mu-type opioid receptor (Homo sapiens, UniProt P35372). The experiment in a line: Counterscreen for agonists of heterodimerization of the mu 1 (OPRM1) and delta 1 (OPRD1) opioid receptors: Luminescence-based cell-based high throughput dose response assay to identify agonists of OPRM1 homodimerization. In kind it is functional.
The target of test [4] is T2, DNA repair protein RAD52 homolog (Homo sapiens, UniProt P43351).
T2 sequence (P43351 whole entry): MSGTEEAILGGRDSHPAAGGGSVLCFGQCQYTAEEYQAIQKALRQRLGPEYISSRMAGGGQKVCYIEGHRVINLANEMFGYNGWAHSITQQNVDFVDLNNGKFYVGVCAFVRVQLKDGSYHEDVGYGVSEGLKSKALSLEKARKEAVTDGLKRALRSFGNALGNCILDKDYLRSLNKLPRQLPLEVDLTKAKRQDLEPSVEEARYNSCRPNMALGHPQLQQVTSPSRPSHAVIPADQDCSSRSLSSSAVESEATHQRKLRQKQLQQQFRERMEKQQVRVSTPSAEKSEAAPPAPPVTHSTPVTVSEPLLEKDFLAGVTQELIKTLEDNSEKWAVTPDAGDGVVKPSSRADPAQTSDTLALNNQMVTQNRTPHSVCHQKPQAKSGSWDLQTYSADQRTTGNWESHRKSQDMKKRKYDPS
The test is classed as functional, biochemical.

Test [5] has as its target Delta-type opioid receptor (Homo sapiens, UniProt P41143). The test can be described thus: Counterscreen for agonists of heterodimerization of the mu 1 (OPRM1) and delta 1 (OPRD1) opioid receptors: Luminescence-based cell-based high throughput dose response assay to identify agonists of OPRD1 homodimerization. [Related pubchem assays (depositor defined):AID504326, AID504355, AID504692, AID504904, AID504905]. In kind it is functional.

Test [6] concerns INS1. The test can be described thus: beta cell apoptosis inhibitors, cytokine rescue, dose response, luminescence, retest (AID 449756).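 Further: cell death triggered by IL-1 beta plus TNF-alpha plus IFN-gamma mixture; protective hits raise ATP signal compared with cytokine alone wells.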 The test is classed as functional, cell-based. The settings on record: Rattus norvegicus.
The target of test [7] is DNA repair and recombination protein RAD54-like (Homo sapiens, UniProt Q92698). The test can be described thus: inhibitors of human RAD54 branch migration, confirmation, biochemical, fluorescence, cherry-picked samples, dose series (AID 651657). In kind it is functional.
The test system of test [8] is Vero. The experiment in a line: host cell cytotoxicity of antiviral hits, dose response, cytotoxicity control for West Nile virus antiviral project, secondary assay (AID 1650). In kind it is functional. Conditions: Chlorocebus sabaeus.
A short description of test [9]: control 3'UTR Renilla luciferase suppression, dose response, counter-screen for Shn3 inhibitor project, cell-based, Clone20-Shn3RL, cherry-picked (AID 624133). In kind it is functional.
The target of test [10] is Protein Wnt-3a (Mus musculus, UniProt P27467). The test can be described thus: Wnt3a-driven reporter signaling inhibition, dose response, selectivity assay for Gli-SUFU antagonist project, Wnt-LIGHT cells, luminescence (AID 651570).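 Further: Wnt-LIGHT reporter cells stimulated with conditioned medium from Wnt3a-producing cells.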 Conditions: read-out: IC50_Mean. The test is classed as functional.
Test [11] in a line: Shn3 3'UTR reporter inhibitors, dose response, cell-based, Clone20 osteoblasts, firefly luciferase, cherry-picked (AID 624132).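 Further: firefly luciferase luminescence from reporter carrying the Shn3 3'UTR in osteoblasts.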 In kind it is functional.
A short description of test [12]: HepG2 cell cytotoxicity, dose response, cytotoxicity control for Shn3 inhibitor project, CellTiter-Glo, cherry-picked (AID 624134). The test is classed as functional, cell-based.
Test [13] concerns the target Matrix metalloproteinase-14 (Homo sapiens, UniProt P50281). The test can be described thus: Dose Response confirmation of uHTS hits for a small molecule inhibitors of MT1-MMP activation in a fluorescence assay set 1. The test is classed as functional.
Test [14] deals with T3, Probable nicotinate-nucleotide adenylyltransferase (Staphylococcus aureus (strain N315), UniProt P65502). The test is classed as functional, Staphylococcus aureus subsp. aureus N315. Conditions: read-out: IC50_Mean.
Test [15] concerns the target T3, Probable nicotinate-nucleotide adenylyltransferase. In kind it is functional, Staphylococcus aureus subsp. aureus N315.
Test [16] addresses 5-hydroxytryptamine receptor 2A (Mus musculus, UniProt P35363). The test is classed as functional, cell-based.
Test [17] addresses T1, Mu-type opioid receptor. The test is classed as functional, cell-based.
The target of test [18] is T4, Nuclear receptor subfamily 0 group B member 1 (Homo sapiens, UniProt P51843).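 Further: HEK293T cells transfected with SF-1 and DAX-1 plus StAR promoter luciferase reporter.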
T4 sequence (P51843 whole entry): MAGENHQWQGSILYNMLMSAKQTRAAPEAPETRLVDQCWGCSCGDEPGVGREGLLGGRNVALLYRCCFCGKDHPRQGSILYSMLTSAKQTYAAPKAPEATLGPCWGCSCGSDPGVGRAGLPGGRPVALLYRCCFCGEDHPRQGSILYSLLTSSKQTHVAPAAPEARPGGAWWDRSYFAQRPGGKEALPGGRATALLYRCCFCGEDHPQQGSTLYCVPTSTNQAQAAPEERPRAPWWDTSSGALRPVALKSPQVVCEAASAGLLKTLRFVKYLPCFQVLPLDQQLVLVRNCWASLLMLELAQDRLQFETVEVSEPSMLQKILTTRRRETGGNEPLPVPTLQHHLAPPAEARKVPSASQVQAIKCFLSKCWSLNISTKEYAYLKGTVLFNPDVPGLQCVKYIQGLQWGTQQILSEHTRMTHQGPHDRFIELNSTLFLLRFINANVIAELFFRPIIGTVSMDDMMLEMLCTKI
In kind it is functional, cell-based.

Test [19] in a line: cells. The test is classed as functional, cell-based.
Test [20] concerns the target Genome polyprotein (dengue virus type 2, UniProt P29990). The test can be described thus: Dengue-2 NS5 methyltransferase inhibitors, primary screen, biochemical, confirmation dose response (AID 588689). In kind it is functional.
The target in test [21] is T5, Streptokinase A (Streptococcus pyogenes serotype M1, UniProt P10520).
T5 sequence (P10520 whole entry): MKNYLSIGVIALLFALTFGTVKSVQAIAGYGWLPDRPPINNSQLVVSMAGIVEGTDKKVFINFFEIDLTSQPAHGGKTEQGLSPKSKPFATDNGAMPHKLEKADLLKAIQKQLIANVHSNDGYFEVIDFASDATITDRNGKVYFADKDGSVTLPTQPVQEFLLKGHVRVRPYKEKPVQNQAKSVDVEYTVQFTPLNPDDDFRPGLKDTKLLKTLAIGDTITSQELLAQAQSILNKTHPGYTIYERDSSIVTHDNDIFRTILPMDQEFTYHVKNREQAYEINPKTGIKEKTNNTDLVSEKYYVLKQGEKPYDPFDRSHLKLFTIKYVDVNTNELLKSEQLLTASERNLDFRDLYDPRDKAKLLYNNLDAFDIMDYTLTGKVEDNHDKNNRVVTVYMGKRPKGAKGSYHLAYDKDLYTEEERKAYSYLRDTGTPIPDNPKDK
The experiment in a line: S. pyogenes streptokinase expression inhibitors, potency, dose response, plasminogen activation absorbance, OD405 (AID 1914).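 Further: secreted streptokinase activity via plasminogen activation per viability signal from cell pellet.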 In kind it is functional, Streptococcus pyogenes M1 GAS.

The target in test [22] is Induced myeloid leukemia cell differentiation protein Mcl-1 (Homo sapiens, UniProt Q07820). The test is classed as functional.
Test [23] can be described thus: ADAM10 protease inhibitors, dose response, selectivity assay for ADAM17 exosite inhibitor project, biochemical, FRET peptide substrate, recombinant human ADAM10 (AID 743259).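 Further: ADAM10 enzyme cleaving a FRET peptide substrate.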
The subject of test [24] is Streptococcus sp. 'group A'. The test can be described thus: growth inhibition of control SK(-) GAS strain, dose response, counter-screen for streptokinase expression inhibitor project, luminescence, kanamycin, BacTiterGlo, confirmation (AID 1900). The test is classed as functional, organism-based.
For test [25], the target named is Long-chain-fatty-acid--AMP ligase FadD28 (Mycobacterium tuberculosis, UniProt P9WQ59). The test can be described thus: Fluorescence polarization aasay to screen for inhibitors that compete for the binding of FadD28 to a bisubstrate Measured in Biochemical System Using Plate Reader - 2147-01_Inhibitor_Dose_CherryPick_Activity. In kind it is functional, Mycobacterium tuberculosis H37Rv. For orientation: In fluorescence polarisation assays a small probe gives low polarisation when free and higher when bound to something large.

The target of test [26] is Disintegrin and metalloproteinase domain-containing protein 17 (Homo sapiens, UniProt P78536). The test can be described thus: exosite inhibitors of ADAM17, dose response, biochemical (AID 743260).
Test [27] relates to Streptococcus. The test can be described thus: Group A Streptococcus viability loss, dose response, counter-screen for streptokinase expression inhibitor project, luminescence, BacTiterGlo (AID 1915).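 Further: potency for reduction of bacterial viability or growth.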 In kind it is functional, organism-based.
The nature of test [28]: LGR2 antagonists, dose response, cell-based, HEK293, CRE-luciferase reporter, cherry pick (AID 743342). In kind it is functional.
The target of test [29] is Small ubiquitin-related modifier 2 (Homo sapiens, UniProt P61956). The test can be described thus: inhibitors of SUMO2 protein-protein interaction, dose response, selectivity assay for SUMO1 interaction inhibitor project, biochemical, FRET, human SUMO2, uHTS hits (AID 624384). The test is classed as functional. Conditions: read-out: IC50_Mean.
In test [30] the target is T6, Small ubiquitin-related modifier 1 (Homo sapiens, UniProt P63165). The test can be described thus: inhibitors of SUMO1 peptide binding, dose response, biochemical, fluorescence polarization, uHTS hits (AID 624382). The settings on record: read-out: IC50_Mean. In kind it is functional.
Test [31] deals with T6, Small ubiquitin-related modifier 1. The experiment in a line: inhibitors of SUMO1 partner interactions, dose response, biochemical, FRET (AID 624383). In kind it is functional. Conditions: read-out: IC50_Mean.
For test [32], the target named is Acyl-protein thioesterase 2 (Homo sapiens, UniProt O95372). The test can be described thus: Late stage assay provider results from the probe development effort to identify selective inhibitors of LYPLA2: fluorescence-based biochemical dose-response assay.

The source made the active and inactive calls. Bounds are passed on as bounds.

T1 sequence (P35372 whole entry): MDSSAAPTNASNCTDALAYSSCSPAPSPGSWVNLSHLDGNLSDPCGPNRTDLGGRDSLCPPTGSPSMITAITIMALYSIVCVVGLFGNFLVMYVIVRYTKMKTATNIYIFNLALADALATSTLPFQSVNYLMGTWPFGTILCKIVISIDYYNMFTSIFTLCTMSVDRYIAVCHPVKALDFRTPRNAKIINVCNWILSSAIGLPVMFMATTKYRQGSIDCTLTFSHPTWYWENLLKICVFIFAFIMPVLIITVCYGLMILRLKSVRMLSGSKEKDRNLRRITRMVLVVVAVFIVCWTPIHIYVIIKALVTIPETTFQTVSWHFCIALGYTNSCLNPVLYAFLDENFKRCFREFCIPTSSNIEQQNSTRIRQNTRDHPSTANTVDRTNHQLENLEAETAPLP
T6 sequence (P63165 whole entry): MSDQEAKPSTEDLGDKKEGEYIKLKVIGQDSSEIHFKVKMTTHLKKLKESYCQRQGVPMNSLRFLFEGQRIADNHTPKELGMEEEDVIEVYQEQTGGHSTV
T3 sequence (P65502 whole entry): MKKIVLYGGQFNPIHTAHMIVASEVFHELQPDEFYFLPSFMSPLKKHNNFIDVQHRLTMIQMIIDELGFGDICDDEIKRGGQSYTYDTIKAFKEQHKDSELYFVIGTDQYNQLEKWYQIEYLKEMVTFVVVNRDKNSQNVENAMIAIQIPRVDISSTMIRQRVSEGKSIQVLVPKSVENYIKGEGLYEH
Protein Wnt-3a, sequence (P27467 whole entry): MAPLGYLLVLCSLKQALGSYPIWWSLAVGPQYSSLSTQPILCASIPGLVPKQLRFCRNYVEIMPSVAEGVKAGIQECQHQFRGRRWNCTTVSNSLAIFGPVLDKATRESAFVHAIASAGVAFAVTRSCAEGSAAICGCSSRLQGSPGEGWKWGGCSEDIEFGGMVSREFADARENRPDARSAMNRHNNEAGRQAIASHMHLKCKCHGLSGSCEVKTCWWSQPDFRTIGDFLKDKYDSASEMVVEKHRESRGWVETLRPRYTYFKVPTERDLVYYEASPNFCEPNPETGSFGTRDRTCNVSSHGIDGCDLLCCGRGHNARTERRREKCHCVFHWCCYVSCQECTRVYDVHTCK
Disintegrin and metalloproteinase domain-containing protein 17, sequence (P78536 whole entry, the tested form may be a part): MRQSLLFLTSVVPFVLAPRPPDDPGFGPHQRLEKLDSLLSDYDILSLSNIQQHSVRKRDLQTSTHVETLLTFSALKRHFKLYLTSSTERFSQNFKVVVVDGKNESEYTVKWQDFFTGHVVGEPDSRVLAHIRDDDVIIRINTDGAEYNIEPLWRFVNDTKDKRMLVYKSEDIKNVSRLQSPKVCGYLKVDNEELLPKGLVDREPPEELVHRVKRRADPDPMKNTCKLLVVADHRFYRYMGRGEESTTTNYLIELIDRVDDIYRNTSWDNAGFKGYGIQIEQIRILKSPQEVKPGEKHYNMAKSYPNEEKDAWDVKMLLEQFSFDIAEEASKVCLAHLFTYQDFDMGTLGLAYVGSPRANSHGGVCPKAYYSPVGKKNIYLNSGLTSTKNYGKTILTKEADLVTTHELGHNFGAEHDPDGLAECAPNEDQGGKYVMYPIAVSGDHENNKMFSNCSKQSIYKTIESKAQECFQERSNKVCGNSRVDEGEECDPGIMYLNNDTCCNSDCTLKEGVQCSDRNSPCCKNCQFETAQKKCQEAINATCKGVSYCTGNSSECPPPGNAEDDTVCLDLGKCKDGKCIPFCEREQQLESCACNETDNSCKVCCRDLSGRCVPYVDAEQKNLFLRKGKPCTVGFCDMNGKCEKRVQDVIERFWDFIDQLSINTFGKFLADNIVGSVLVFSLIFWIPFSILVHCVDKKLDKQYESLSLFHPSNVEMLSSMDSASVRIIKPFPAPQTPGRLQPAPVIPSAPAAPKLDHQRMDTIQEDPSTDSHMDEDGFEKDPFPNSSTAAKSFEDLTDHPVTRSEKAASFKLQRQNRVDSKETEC
DNA repair and recombination protein RAD54-like, sequence (Q92698 whole entry): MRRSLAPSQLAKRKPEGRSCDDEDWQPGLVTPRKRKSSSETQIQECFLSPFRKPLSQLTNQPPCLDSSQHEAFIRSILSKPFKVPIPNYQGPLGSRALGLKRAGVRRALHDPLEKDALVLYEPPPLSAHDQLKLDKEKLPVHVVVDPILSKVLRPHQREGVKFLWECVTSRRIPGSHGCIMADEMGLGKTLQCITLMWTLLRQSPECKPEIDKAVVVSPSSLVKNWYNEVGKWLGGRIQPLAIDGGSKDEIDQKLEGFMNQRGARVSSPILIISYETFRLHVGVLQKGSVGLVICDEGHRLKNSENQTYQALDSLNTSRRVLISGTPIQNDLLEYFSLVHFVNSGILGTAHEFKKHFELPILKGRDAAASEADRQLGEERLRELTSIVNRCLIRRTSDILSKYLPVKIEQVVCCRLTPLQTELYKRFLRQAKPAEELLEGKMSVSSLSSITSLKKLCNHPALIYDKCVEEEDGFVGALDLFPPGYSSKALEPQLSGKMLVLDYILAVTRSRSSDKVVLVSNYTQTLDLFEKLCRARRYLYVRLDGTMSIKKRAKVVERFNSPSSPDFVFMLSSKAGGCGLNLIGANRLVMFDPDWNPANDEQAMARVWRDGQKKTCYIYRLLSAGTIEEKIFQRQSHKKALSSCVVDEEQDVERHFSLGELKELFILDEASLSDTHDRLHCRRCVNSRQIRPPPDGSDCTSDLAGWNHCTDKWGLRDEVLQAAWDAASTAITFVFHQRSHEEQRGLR
5-hydroxytryptamine receptor 5A, sequence (P47898 whole entry): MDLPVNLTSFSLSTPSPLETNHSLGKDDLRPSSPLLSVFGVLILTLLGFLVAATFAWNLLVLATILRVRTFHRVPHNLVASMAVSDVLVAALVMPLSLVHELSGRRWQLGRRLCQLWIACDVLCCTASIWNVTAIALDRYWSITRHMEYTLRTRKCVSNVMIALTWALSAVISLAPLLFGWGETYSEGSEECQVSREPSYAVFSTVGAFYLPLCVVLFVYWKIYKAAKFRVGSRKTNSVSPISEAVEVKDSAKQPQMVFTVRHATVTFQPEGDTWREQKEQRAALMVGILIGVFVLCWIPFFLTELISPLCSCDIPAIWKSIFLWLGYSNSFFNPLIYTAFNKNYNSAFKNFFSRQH
Delta-type opioid receptor, sequence (P41143 whole entry): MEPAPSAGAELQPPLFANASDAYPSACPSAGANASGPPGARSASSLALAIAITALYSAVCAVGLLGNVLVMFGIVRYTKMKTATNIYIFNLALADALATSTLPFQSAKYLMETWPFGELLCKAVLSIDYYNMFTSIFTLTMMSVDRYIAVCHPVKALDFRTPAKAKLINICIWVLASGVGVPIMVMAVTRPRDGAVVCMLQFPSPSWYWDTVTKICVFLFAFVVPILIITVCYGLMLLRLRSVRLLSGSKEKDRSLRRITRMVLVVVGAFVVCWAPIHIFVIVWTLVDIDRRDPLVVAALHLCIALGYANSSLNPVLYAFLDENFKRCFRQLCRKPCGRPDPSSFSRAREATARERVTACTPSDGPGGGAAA
5-hydroxytryptamine receptor 2A, sequence (P35363 whole entry): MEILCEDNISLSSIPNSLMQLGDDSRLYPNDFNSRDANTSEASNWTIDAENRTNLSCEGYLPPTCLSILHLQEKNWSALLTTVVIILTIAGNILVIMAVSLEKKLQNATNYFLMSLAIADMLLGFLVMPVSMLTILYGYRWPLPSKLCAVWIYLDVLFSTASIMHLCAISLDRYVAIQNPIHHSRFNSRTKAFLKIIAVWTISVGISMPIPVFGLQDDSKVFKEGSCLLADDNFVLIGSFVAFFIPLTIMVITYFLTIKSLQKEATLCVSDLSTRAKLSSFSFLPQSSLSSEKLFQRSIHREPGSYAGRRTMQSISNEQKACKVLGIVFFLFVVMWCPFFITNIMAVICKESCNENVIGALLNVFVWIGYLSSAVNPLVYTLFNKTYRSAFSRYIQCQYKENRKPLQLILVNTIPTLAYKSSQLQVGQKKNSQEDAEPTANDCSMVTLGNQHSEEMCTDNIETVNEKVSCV
Genome polyprotein, sequence (P29990 2492-3391 limits assumed): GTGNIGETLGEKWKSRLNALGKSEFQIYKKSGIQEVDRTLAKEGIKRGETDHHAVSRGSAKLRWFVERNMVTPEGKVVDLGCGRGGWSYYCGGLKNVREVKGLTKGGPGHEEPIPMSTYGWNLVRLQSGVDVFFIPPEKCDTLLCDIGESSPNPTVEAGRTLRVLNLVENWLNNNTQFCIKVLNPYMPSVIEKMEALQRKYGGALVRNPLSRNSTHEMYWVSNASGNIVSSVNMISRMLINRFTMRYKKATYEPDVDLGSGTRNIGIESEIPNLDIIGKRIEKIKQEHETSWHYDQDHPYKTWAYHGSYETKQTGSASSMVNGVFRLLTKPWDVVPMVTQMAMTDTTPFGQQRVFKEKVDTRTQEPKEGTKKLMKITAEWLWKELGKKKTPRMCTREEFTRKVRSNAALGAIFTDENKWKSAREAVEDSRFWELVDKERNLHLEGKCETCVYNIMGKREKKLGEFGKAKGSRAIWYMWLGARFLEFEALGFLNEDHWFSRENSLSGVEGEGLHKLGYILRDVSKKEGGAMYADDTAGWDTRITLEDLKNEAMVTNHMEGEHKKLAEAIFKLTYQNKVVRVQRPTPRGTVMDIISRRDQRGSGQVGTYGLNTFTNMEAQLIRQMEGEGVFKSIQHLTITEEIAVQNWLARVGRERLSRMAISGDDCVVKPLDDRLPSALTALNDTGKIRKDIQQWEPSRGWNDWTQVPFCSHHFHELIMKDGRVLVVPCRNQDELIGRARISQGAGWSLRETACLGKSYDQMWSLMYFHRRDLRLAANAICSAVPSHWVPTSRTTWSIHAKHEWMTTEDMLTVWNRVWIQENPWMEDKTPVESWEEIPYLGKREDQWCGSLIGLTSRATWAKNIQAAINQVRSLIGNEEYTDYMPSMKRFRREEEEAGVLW
Small ubiquitin-related modifier 2, sequence (P61956 whole entry): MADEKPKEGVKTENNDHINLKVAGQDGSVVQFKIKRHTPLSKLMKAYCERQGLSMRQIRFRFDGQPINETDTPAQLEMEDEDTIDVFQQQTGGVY

Regarding `CCOc1ccc(Nc2c3ccccc3nc3ccccc23)cc1`, the figures for the EC50 in test [1], in test [3] and in test [5] were > 92.5 µM (inactive), 43.8 µM (inactive) and > 92.5 µM (inactive), respectively. Further, the half-maximal activity concentration (AC50) is 46.9 µM (active) in test [2], 1.57 µM (active) in test [4], 5.05 µM (active) in test [6] and 7.28 µM (active) in test [7]. In [8], the CC50 was 6.47 µM (active).
On to `CNc1ccccc1C(C)(C)c1cc(-c2cccc(Br)c2)no1`, for which the AC50 in [9] was 9.45 µM (active); in test [11] it was 2 µM (active); in test [12], 44.5 µM (active). The IC50 in test [10] was 1.8 µM (active); in [13], > 80 µM (inactive).
On to `Cc1ccc(S(=O)(=O)Nc2ccc(Nc3nccn4c(-c5ccc6ccccc6c5)cnc34)cc2)cc1`, for which the results for the IC50 in test [14] and in [15] were 16.3 µM (active) and 9.78 µM (active), respectively.
In the case of `Cc1cccc(C)c1-n1nnnc1C(C1CC1)N1CCN(C/C=C/c2ccccc2)CC1` (configuration not stated), the EC50 is 0.94 µM (active) in [16] and 92.6 µM (inactive) in test [17].
In the case of `CN1OC[C@@H]2CN[C@H](c3ccc(-c4cccc(F)c4)cc3)C[C@@H]21`, the IC50 in test [18] and in test [19] was > 67.5 µM (inactive) in each case.
As for `Cc1[nH]n(-c2ncc(-c3ccccc3)s2)c(=O)c1C(c1ccc(Br)cc1)C(C#N)C#N` (configuration not stated), the IC50 was 22.3 µM (active) in [20], 4.67 µM (active) in [22], 10.6 µM (inactive) in [23] and > 69.5 µM (inactive) in test [26]. For the same compound, the EC50 in [21] is > 150 µM (not active); in test [24] it was 3.39 µM (active); in test [27], 5.75 µM (active). The AC50 in test [25] was 35.5 µM (active).
On to `C[C@H](CO)N1C[C@H](C)[C@H](CN(C)C(=O)Nc2ccc(F)cc2)OCCCC[C@H](C)Oc2ccc(NC(=O)NC3CCCCC3)cc2C1=O`, for which, in [28], the AC50 is 8.05 µM (active).
Regarding `N#C/C(=C(\O)Nc1cccc(Cl)c1)c1nc2ccccc2[nH]1`, the results for the IC50 in [29], in [30] and in test [31] were > 66 µM (inactive), 66 µM (inactive) and 52.6 µM (inactive), respectively.
On to `O=C(CN1CCN(C(=O)c2ccco2)CC1)Nc1cc(C(F)(F)F)ccc1Cl`, for which the IC50 in [32] was > 10 µM (inactive).

One may read the EC50 as the concentration at which the effect is half-maximal. As usually defined, the AC50 is the concentration at which the activity in the assay is half-maximal. What is called CC50 is the concentration at which the toxic effect on the cells reaches its halfway point.

The values are drawn from ChEMBL document CHEMBL1201862, “PubChem BioAssay data set” (2004).
